The values that follow come from patent publication US9556191B2, “Aminoquinazoline derivatives and their salts and methods of use thereof” (SUNSHINE LAKE PHARMA CO., LTD, priority 2013, dated 2017).

The nature of data set [1]: Rat PK (pharmacokinetics after iv and po administration). It counts as in vivo. As to conditions: male, SD, plasma; for Vd: read-out: Vss; for bioavailability: po 5 vs iv 2 (g/kg [sic]; mg/kg in method), read-out: F (bioavailability). From the text: Materials used include Propranolol (internal standard), methyl alcohol, ammonium acetate, K2EDTA (potassium ethylenediaminetetraacetate), methane acid, acetonitrile, MTBE (methyl tert-butyl ether), Cremophor EL (polyoxyethylated castor oil), KolliphorHS 15 (polyethylene glycol 12-hydroxystearate), DMSO (dimethylsulfoxide), PEG400 (polyethylene glycol 400) and SD rat (male, 180-220 g, 7-8 weeks old, purchased from Hunan Slack King of Laboratory Animal Co., Ltd.), all of which are commercially available.
Each test compound prepared in above examples was completely dissolved in a mixture of 5% DMSO, 5% KolliphorHS 15 and 90% saline.
(1) The test sample stock solution was prepared by dissolving an accurately weighed test sample in DMSO followed by dilution to the concentration of 1 mg/mL with acetonitrile. The stock solution was stored under the condition of −20° C. for later use.
(2) Internal standard solution was prepared by diluting a certain amount of the Propranolol stock solution in the concentration of 1 mg/mL to 100 ng/mL with water.
Samples treated with liquid-liquid extraction and chromatographic separation were analyzed by triple quadrupole tandem mass spectrometer in multiple reaction monitoring (MRM) mode for quantitative analysis.
Pretreatment of plasma sample was performed according to the following procedures: (1) plasma sample (30 μL) was precisely measured, and internal standard (250 μL) was then added to the plasma sample which was then mixed by vortexing; (2) the sample was extracted once with 1 mL of MTBE and then centrifuged at 13000 rpm for 2 minutes at 4° C.; (3) supernatant (800 μL) was aspirated and dried with 96 holes nitrogen gas blowing; (4) the residue was dissolved with 150 μL of a mixture of methanol and water (v/v=1/1) and then mixed by vortexing; and (5) sampling: sample quantity was 8 μL.
Preparation of standard sample was performed according to the following procedures: (1) a pre-determined amount of the compound stock solution was precisely measured, and then was diluted to standard series of solution with acetonitrile; (2) each of the standard solution (20 μL) prepared above was precisely measured and to each was added 180 μL of blank plasma; (3) each sample was mixed by vortexing to obtain series of standard samples in which the plasma concentration was 3, 5, 10, 30, 100, 300, 1000, 3000, 5000 or 10000 ng/mL; and (4) standard curve was established.
The content of each test compound in rat plasma after administration was determined by LC/MS/MS.
Noncompartmental analysis to calculate pharmacokinetic parameters was performed with WinNonlin 6.1 software.

Data set [2] deals with EGFR T790M (human epidermal growth factor receptor T790M mutation) (Homo sapiens (Human), UniProt P00533, T790M). Nature of the data set: In vitro kinase inhibitory activity, EGFR T790M. In kind it is biochemical. The procedure: (§1) Stop buffer was prepared from 100 mM HEPES, pH 7.5, 0.015% Brij-35, 0.2% Coating Reagent #3, and 50 mM EDTA.
(§2) Kinase reaction was performed according to the following procedures: (1) 2.5× kinase solution was prepared by adding kinase into 1× kinase base buffer; (2) 2.5× peptide solution was prepared by adding FAM-labeled peptide and ATP into 1× kinase base buffer; (3) 2.5× kinase solution (10 μL) was added to each well of the 384-well assay plate containing 5 μL of compound in 10% DMSO and then the assay plate was incubated at room temperature for 10 minutes; (4) 2.5× peptide solution (10 μL) was added to each well of the 384-well assay plate; and (5) stop buffer (25 μL) was added to stop the kinase reaction after incubation at 28° C. for a specified period of time.
(§3) Multifunctional microplate reader (BMG LABTECH, PHER Astar FS) with a 320 nm excitation wavelength was used to read and collected the data of by absorbing light at […], which was converted from the rate of 665 signal/620 signal.
(§4) Conversion data were copied, and then converted to inhibition values with the following formula: percent inhibition=(max−conversion)/(max−min)*100 where “max” stands for the DMSO control value, “conversion” stands for the sample value and “[…]” stands for the no-kinase control value. The data were fitted in XLfit to obtain IC50 values.

Data set [3] has as its target EGFR (human epidermal growth factor receptor) (Homo sapiens (Human), UniProt P00533). Put plainly: In vitro kinase inhibitory activity, EGFR. It counts as biochemical. The procedure:
as §1, §2, §3, §4

Data set [4] deals with HER2 (human epidermal growth factor receptor 2) (Homo sapiens (Human), UniProt P04626). Put plainly: In vitro kinase inhibitory activity, HER-2. In kind it is biochemical. The procedure:
as §1
as §2, with “time. […]” for “time.”
as §4

Where [5] appears, read: iv(2 g/kg) [sic], method says 2 mg/kg.
Where [6] appears, read: po(5 g/kg) [sic], method says 5 mg/kg.

EGFR T790M (human epidermal growth factor receptor T790M mutation), sequence (P00533 25-1210 T790M): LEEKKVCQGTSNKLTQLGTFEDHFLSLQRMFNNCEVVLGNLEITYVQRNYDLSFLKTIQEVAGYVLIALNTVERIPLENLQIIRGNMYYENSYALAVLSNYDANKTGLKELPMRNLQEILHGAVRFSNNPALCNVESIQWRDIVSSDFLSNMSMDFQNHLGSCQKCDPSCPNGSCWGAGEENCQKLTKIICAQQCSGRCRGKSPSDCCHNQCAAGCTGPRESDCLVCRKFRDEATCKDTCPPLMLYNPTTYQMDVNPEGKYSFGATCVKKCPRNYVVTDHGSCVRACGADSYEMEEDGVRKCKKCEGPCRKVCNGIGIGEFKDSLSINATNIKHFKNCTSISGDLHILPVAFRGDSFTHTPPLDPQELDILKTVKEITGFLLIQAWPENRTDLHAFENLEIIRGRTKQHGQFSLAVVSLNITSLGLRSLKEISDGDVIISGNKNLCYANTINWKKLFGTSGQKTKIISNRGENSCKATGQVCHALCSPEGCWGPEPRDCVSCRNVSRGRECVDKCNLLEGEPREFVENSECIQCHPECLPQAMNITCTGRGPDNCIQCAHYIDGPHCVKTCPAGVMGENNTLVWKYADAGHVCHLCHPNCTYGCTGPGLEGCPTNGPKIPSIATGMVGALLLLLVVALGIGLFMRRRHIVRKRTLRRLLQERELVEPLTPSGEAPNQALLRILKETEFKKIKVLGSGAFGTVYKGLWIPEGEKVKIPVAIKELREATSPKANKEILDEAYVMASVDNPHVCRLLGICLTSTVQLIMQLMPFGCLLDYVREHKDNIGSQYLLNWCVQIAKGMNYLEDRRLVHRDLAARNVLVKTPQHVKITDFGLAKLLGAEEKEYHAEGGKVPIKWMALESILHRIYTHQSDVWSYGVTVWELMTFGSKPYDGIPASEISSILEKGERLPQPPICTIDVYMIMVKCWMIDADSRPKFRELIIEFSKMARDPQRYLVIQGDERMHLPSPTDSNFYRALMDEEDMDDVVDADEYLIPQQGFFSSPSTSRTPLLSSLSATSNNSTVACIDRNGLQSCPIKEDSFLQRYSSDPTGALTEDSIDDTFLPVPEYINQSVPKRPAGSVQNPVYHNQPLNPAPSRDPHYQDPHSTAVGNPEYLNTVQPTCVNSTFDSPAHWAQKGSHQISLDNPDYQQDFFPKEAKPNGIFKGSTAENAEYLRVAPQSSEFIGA
HER2 (human epidermal growth factor receptor 2), sequence (P04626 23-1255): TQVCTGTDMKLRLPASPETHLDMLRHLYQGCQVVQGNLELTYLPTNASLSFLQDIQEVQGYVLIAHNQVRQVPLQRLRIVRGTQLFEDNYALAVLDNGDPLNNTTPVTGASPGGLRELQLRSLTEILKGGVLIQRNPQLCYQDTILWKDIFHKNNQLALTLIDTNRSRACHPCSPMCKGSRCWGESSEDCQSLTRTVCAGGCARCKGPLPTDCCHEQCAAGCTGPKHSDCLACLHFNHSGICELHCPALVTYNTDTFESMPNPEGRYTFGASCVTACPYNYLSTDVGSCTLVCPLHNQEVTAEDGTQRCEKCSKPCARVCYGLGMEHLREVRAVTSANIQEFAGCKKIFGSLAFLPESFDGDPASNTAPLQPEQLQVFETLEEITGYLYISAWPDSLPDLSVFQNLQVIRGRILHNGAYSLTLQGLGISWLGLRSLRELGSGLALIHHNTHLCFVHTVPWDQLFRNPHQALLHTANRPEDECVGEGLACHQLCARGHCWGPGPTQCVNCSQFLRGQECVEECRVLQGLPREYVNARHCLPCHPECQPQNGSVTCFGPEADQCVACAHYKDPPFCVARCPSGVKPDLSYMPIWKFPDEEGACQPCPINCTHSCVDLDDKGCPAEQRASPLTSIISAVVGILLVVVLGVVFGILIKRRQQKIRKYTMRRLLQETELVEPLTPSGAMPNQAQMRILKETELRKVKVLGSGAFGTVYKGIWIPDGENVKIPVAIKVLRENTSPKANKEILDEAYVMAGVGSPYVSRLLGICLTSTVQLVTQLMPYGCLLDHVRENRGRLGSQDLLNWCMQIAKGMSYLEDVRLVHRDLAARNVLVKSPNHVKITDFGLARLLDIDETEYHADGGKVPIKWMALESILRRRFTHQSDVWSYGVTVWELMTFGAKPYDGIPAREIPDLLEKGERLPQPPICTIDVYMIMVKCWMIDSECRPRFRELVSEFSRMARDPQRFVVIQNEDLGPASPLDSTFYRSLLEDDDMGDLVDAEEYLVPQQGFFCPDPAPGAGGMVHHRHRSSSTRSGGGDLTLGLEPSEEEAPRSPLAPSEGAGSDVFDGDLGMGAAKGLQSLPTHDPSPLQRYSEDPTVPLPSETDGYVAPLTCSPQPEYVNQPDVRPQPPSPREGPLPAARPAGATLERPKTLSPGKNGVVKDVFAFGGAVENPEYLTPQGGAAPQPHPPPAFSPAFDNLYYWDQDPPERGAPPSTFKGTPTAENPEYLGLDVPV
EGFR (human epidermal growth factor receptor), sequence (P00533 25-1210): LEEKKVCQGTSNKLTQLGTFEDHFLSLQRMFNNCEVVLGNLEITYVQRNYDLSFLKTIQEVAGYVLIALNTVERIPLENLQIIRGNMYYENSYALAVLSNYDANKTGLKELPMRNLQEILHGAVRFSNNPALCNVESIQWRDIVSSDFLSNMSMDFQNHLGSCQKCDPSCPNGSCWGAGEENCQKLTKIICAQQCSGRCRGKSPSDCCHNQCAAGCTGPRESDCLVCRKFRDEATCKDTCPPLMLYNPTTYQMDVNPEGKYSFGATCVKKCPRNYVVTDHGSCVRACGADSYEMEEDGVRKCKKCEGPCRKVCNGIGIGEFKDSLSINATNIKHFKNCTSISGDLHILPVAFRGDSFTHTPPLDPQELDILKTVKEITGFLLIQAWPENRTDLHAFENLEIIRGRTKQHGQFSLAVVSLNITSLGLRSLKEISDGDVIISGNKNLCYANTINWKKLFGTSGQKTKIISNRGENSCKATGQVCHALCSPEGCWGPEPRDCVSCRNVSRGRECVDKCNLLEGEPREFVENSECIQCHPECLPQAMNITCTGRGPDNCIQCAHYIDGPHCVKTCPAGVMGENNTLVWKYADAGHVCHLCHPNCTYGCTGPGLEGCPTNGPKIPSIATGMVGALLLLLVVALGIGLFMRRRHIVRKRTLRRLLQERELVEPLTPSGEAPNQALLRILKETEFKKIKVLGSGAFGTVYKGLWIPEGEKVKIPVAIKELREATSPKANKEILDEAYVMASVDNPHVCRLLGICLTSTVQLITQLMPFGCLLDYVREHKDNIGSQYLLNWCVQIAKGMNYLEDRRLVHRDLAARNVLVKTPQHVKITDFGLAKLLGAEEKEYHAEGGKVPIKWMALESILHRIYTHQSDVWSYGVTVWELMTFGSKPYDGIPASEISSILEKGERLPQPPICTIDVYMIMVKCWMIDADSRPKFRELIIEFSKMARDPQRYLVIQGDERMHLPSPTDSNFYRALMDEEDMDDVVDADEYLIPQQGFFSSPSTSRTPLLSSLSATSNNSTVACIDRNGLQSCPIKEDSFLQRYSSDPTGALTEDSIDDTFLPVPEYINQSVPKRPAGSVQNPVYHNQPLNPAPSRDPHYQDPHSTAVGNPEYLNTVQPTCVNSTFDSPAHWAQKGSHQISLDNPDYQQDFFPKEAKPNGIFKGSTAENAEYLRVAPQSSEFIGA

The term AUC(0-t) denotes exposure summed from dosing to a finite time, without extrapolation to infinity. Read a low AUC(0-t) as low exposure. The term Cmax denotes the maximum level reached in the sampled fluid or tissue. What is called half-life is the time needed for the level to fall by half in the phase considered. A lower half-life goes with fast loss. One may read the IC50 as the concentration that gives 50% inhibition. Lower therefore signals inhibition by little substance. For `COc1cc2ncnc(Nc3ccc(OCc4ccccn4)c(Cl)c3)c2cc1NC(=O)/C=C/CN1C[C@@H]2OCCO[C@@H]2C1` [Example 23, (E)-N-(4-((3-Chloro-4-(pyridin-2-ylmethoxy)phenyl)amino)-7-methoxyquinazolin-6-yl)-4-((4 aR,7aS)tetrahydro-2H-[1,4]dioxino[2,3-c]pyrrol-6(3H)-yl)but-2-enamide], in data set [1] (setting [5]), the exposure AUC(0-t) was 7560 ng·h/mL, the peak concentration (Cmax) was determined as 2770 ng/mL, the half-life was 3.06 h and the Vd was 0.88 L/kg. In addition, the bioavailability in data set [1] is 73.5%. Also, in data set [1] (setting [6]), the AUC(0-t) worked out at 13900 ng·h/mL, the Cmax turned out to be 1930 ng/mL and the half-life was 2.77 h. Moreover, in data set [2], the 50% inhibitory concentration (IC50) is 8.5 nM. In addition, half-maximal inhibition in data set [3] (IC50) required 60.4 nM. In addition, inhibition in data set [4] was half-maximal at 1.8 nM (IC50).
`CCOc1cc2ncnc(Nc3ccc(OCc4ccccn4)c(Cl)c3)c2cc1NC(=O)/C=C/CN1C[C@@H]2OCCO[C@@H]2C1` [Example 24, (E)-N-(4-((3-Chloro-4-(pyridin-2-ylmethoxy)phenyl)amino)-7-ethoxyquinazolin-6-yl)-4-((4aR,7aS)-tetrahydro-2H-[1,4]dioxino[2,3-c]pyrrol-6(3H)-yl)but-2-enamide]: in data set [1] (setting [5]), the area under the curve AUC(0-t) was determined as 10500 ng·h/mL, the concentration peaked (Cmax) at 2930 ng/mL, the half-life is 3.59 h and the Vd came out at 0.79 L/kg. The bioavailability in data set [1] turned out to be 87.1%. Moreover, in data set [1] (setting [6]), the AUC(0-t) is 22900 ng·h/mL, the Cmax is 2770 ng/mL and the half-life was 3.49 h. In data set [2], the midpoint of inhibition, the IC50, lay at 4.2 nM. The compound also came in with an IC50 in data set [3] of 18.4 nM. The compound further returned a half-maximal inhibitory concentration (IC50) in data set [4] of 1.7 nM.
As for `O=C(/C=C/CN1C[C@@H]2OCCO[C@@H]2C1)Nc1cc2c(Nc3ccc(OCc4ccccn4)c(Cl)c3)ncnc2cc1O[C@H]1CCOC1` [Example 25, (E)-N-(4-((3-Chloro-4-(pyridin-2-ylmethoxy)phenyl)amino)-7-(((S)-tetrahydrofuran-3-yl)oxy)quinazolin-6-yl)-4-((4aR,7aS)-tetrahydro-2H-[1,4]dioxino[2,3-c]pyrrol-6(3H)-yl)but-2-enamide], in data set [1] (setting [5]), the area under the curve AUC(0-t) was 4530 ng·h/mL, the highest level (Cmax) was 4110 ng/mL, the half-life is 1.42 h and the Vd amounted to 0.65 L/kg. In addition, in data set [1], the bioavailability turned out to be 5.94%. Further, in data set [1] (setting [6]), the AUC(0-t) worked out at 474 ng·h/mL, the Cmax came to 73 ng/mL and the half-life is 4.42 h. The compound further came in with a half-maximal inhibitory concentration (IC50) in data set [2] of 5.9 nM. This compound yielded an IC50 in data set [3] of 8.6 nM. In data set [4], this compound registered a half-inhibitory concentration (IC50) of 2.5 nM.
Regarding `COc1cc2ncnc(Nc3ccc4c(cnn4Cc4cccc(F)c4)c3)c2cc1NC(=O)/C=C/CN1C[C@@H]2OCCO[C@@H]2C1` [Example 27, (E)-N-(4-((1-(3-Fluorobenzyl)-1H-indazol-5-yl)amino)-7-methoxyquinazolin-6-yl)-4-((4aR,7aS)-tetra hydro-2H-[1,4]dioxin[2,3-c]pyrrol-6(3H)-yl)but-2-enamide], the AUC(0-t) in data set [1] (setting [5]) was determined as 1190 ng·h/mL; in data set [1] (setting [6]), 303 ng·h/mL. For the same compound, the maximum concentration (Cmax) in data set [1] (setting [5]) turned out to be 923 ng/mL; in data set [1] (setting [6]), 67.8 ng/mL. In addition, the half-life in data set [1] (setting [5]) is 1.97 h; in data set [1] (setting [6]), 2.33 h. Also, in data set [1] (setting [5]), the Vd amounted to 3.65 L/kg. Also, the bioavailability in data set [1] is 10.8%. For the same compound, the IC50 in data set [2] amounted to 22.9 nM; in data set [3], 7.9 nM; in data set [4], 2.2 nM.
Consider `CCOc1cc2ncnc(Nc3ccc4c(cnn4Cc4cccc(F)c4)c3)c2cc1NC(=O)/C=C/CN1C[C@@H]2OCCO[C@@H]2C1` [Example 28, (E)-N-(7-Ethoxy-4-((1-(3-fluorobenzyl)-1H-indazol-5-yl)amino)quinazolin-6-yl)-4-((4aR,7aS)-tetrahydro-2H-[1,4]dioxino[2,3-c]pyrrol-6(3H)-yl)but-2-enamide], for which the AUC(0-t) in data set [1] (setting [5]) stood at 692 ng·h/mL; in data set [1] (setting [6]) it was 721 ng·h/mL. For the same compound, the results for the peak concentration (Cmax) in data set [1] (setting [5]) and in data set [1] (setting [6]) were 450 ng/mL and 147 ng/mL, respectively. The half-life in data set [1] (setting [5]) was 1.99 h; in data set [1] (setting [6]), 1.41 h. For the same compound, the Vd in data set [1] (setting [5]) came out at 6.66 L/kg. Moreover, the bioavailability in data set [1] came to 41.5%. The IC50 was determined as 14.5 nM in data set [2], 40.1 nM in data set [3] and 1.6 nM in data set [4].
As to `COc1cc2ncnc(Nc3ccc(Cl)c(Cl)c3F)c2cc1NC(=O)/C=C/CN1C[C@@H]2OCCO[C@@H]2C1` [Example 31, (E)-N-(4-((3,4-Dichloro-2-fluorophenyl)amino)-7-methoxyquinazolin-6-yl)-4-((4aR,7aS)-tetrahydro-2H-[1,4]dioxino[2,3-c]pyrrol-6(3H)-yl)but-2-enamide], in data set [1] (setting [5]), the area under the curve AUC(0-t) was 2990 ng·h/mL, the maximum concentration (Cmax) stood at 1210 ng/mL, the half-life is 3.66 h and the Vd was determined as 2.58 L/kg. In addition, the bioavailability in data set [1] was 93.5%. In data set [1] (setting [6]), this compound showed an area under the curve AUC(0-t) of 6980 ng·h/mL, a Cmax of 794 ng/mL and a half-life of 3.16 h. This compound also had a half-maximal inhibitory concentration (IC50) in data set [2] of 6.4 nM. Also, in data set [3], half-maximal inhibition (IC50) required 2.1 nM. Also, the IC50 in data set [4] was found to be 9.1 nM.
With `CCOc1cc2ncnc(Nc3ccc(Cl)c(Cl)c3F)c2cc1NC(=O)/C=C/CN1C[C@@H]2OCCO[C@@H]2C1` [Example 32, (E)-N-(4-((3,4-Dichloro-2-fluorophenyl)amino)-7-ethoxyquinazolin-6-yl)-4-((4aR,7aS)-tetrahydro-2H-[1,4]dioxino[2,3-c]pyrrol-6(3H)-yl)but-2-enamide], the AUC(0-t) in data set [1] (setting [5]) came out at 2170 ng·h/mL; in data set [1] (setting [6]), 6220 ng·h/mL. The maximum concentration (Cmax) in data set [1] (setting [5]) turned out to be 1000 ng/mL; in data set [1] (setting [6]) it was 748 ng/mL. For the same compound, the half-life in data set [1] (setting [5]) is 2.95 h; in data set [1] (setting [6]), 2.97 h. In data set [1] (setting [5]), the Vd is 2.97 L/kg. In data set [1], the bioavailability stood at 108%. In addition, the half-maximal inhibitory concentration (IC50) came to 4 nM in data set [2], 1.2 nM in data set [3] and 7 nM in data set [4].
As for `O=C(/C=C/CN1C[C@@H]2OCCO[C@@H]2C1)Nc1cc2c(Nc3ccc(Cl)c(Cl)c3F)ncnc2cc1O[C@H]1CCOC1` [Example 34, (E)-N-(4-((3,4-Dichloro-2-fluorophenyl)amino)-7-(((S)-tetrahydrofuran-3-yl)oxy)quinazolin-6-yl)-4-((4aR,7aS)-tetrahydro-2H-[1,4]dioxino[2,3-c]pyrrol-6(3H)-yl)but-2-enamide], in data set [1] (setting [5]), the area under the curve AUC(0-t) is 951 ng·h/mL, the highest level (Cmax) was 645 ng/mL, the half-life was 1.15 h and the Vd is 3.18 L/kg. For the same compound, the bioavailability in data set [1] is 68.7%. In data set [1] (setting [6]), this compound gave an AUC(0-t) of 1550 ng·h/mL, a Cmax of 378 ng/mL and a half-life of 1.4 h. For the same compound, half-maximal inhibition in data set [2] (IC50) required 7 nM. In data set [3], 3.3 nM corresponded to half-maximal inhibition (IC50). In addition, in data set [4], the midpoint of inhibition, the IC50, lay at 20.3 nM.
